Earlier results, collected in US7261907B2, “Compositions for the treatment of neurological disorders” (priority 2001, dated 2007).
Where a name gives a salt, the structure may show the parent alone.

System: nicotine and cocaine addiction
Conditions: in vivo

SMILES: CC(NC(C)(C)C)C(=O)c1cccc(Cl)c1 (stereo not shown) [bupropion hydrochloride]
- effectiveness in treating nicotine and cocaine addiction: moderately effective
